Reference: paper PMC12493155, “A yeast-based in vivo assay complements in vitro and in silico approaches to characterize sterol-binding by Saccharomyces cerevisiae Lam/Ltc proteins” (The Journal of Biological Chemistry, 2025)
Structures can show the parent of a compound that is named as a salt.

What was measured:
[1] = target: T1, Pry1 (Saccharomyces cerevisiae, UniProt P47032); experiment: Microscale thermophoresis (MST) ligand binding; details: Pry1, pH 7.5, 50 nM protein
T1 construct: made in house; host or cells: E. coli BL21
T1 sequence (P47032 20-299): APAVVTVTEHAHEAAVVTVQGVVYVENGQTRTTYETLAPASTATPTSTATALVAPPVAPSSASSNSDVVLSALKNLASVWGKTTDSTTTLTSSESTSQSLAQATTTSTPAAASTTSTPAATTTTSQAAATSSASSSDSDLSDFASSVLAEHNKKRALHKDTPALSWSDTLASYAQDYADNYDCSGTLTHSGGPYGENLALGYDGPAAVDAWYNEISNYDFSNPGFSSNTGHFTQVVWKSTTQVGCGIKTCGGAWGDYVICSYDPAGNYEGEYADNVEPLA
Protocol: (§1) This polyhistidine-tagged protein is site-specific fluorescently labeled (RED-tris-NTA, green star). The labeled protein is incubated with varying concentrations of ligand, loaded into glass capillaries, the capillaries are locally heated with an infrared (IR) laser, generating a temperature gradient, and the rate of temperature-induced diffusion of the ligand-bound protein was recorded and plotted as a function of ligand concentration. B, sterol binding by Pry1, NPC2, Osh4, and STARD1 measured by MST. […] Binding by Pry1, Osh4 was assessed at pH 7.5, STARD1 at pH 8.5, and NPC2 binding affinity was determined at pH 5.5. […] Data shown in panelB represent the mean ± SD of three independent experiments. MST, microscale thermophoresis; NPC2, Niemann-Pick type C2; Pry, pathogen-related in yeast; STARD1, steroidogenic acute regulatory protein 1.
(§2) Purified proteins were fluorescently labeled using the RED-tris-NTA His tag protein labeling kit (NanoTemper Technologies) ([52]). […] Binding by Pry1, Osh4, and the StARkin domains was assessed at pH 7.5, STARD1 at pH 8.5, and NPC2 binding affinity was determined at pH 5.5.
(§3) Samples were centrifuged for 5 min at 15,000g at 4 °C and loaded into standard MST capillaries. The dissociation constant Kd was determined by plotting the fraction of ligand-bound protein against the logarithm of the ligand concentrations, using Prism software (GraphPad).

[2] = target: T2, STARD1 (Homo sapiens, UniProt P49675); experiment: Microscale thermophoresis (MST) ligand binding; details: STARD1, pH 8.5, 50 nM protein
T2 construct: made in house; host or cells: E. coli BL21
T2 sequence (P49675 64-285): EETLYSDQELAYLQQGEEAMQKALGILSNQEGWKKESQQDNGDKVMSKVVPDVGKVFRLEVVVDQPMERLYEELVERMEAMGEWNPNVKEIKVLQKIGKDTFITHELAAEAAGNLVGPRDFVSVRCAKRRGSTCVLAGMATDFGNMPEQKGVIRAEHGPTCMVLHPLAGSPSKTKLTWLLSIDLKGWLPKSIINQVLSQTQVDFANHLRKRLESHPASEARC
Protocol: as §1, §2, §3

[3] = target: T3, Osh4 (Saccharomyces cerevisiae, UniProt P35844); experiment: Microscale thermophoresis (MST) ligand binding; details: Osh4, pH 7.5, 50 nM protein
T3 construct: made in house; host or cells: E. coli BL21
Protocol: as §1, §2, §3

[4] = target: T4, Ysp1^StARkin (Saccharomyces cerevisiae, UniProt P38851); experiment: Microscale thermophoresis (MST) ligand binding; details: pH 7.5
T4 construct: Ysp1^StARkin (765–978 aa, 26.9 kDa); made in house; host or cells: E. coli BL21
T4 sequence (P38851 765-978): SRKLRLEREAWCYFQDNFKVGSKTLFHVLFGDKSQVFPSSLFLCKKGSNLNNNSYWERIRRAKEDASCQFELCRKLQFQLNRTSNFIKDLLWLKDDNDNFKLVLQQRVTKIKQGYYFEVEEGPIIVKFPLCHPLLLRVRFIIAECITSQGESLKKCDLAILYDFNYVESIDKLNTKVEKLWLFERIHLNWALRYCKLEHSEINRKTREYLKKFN
From the text: (§4) To further characterize these domains, we expressed and purified Ysp1^StARkin, Sip3^StARkin, Lam4^StARkin1, and Lam4^StARkin2 from bacterial cells and assessed their sterol-binding affinities using MST.

[5] = target: T5, Lam4^StARkin1 (Saccharomyces cerevisiae, UniProt P38800); experiment: Microscale thermophoresis (MST) ligand binding; details: Lam4^StARkin1, pH 7.5
T5 construct: both StARkin domains of Lam4 (StARkin1, 758–930 aa, 20.3 kDa); made in house; host or cells: E. coli BL21
From the text: as §4

[6] = target: T6, Lam4^StARkin2 (Saccharomyces cerevisiae, UniProt P38800); experiment: Microscale thermophoresis (MST) ligand binding; details: Lam4^StARkin2, pH 7.5
T6 construct: StARkin2, 967–1139 aa, 34.6 kDa; made in house; host or cells: E. coli BL21
From the text: as §4

[7] = target: T7, Lam6 (ΔTMD) (Saccharomyces cerevisiae, UniProt Q08001); experiment: Microscale thermophoresis (MST) ligand binding; details: soluble Lam6 (ΔTMD)
T7 construct: Lam5 (1–633 aa), and Lam6 (1–621 aa); made in house; host or cells: E. coli BL21
T7 sequence (Q08001 1-621): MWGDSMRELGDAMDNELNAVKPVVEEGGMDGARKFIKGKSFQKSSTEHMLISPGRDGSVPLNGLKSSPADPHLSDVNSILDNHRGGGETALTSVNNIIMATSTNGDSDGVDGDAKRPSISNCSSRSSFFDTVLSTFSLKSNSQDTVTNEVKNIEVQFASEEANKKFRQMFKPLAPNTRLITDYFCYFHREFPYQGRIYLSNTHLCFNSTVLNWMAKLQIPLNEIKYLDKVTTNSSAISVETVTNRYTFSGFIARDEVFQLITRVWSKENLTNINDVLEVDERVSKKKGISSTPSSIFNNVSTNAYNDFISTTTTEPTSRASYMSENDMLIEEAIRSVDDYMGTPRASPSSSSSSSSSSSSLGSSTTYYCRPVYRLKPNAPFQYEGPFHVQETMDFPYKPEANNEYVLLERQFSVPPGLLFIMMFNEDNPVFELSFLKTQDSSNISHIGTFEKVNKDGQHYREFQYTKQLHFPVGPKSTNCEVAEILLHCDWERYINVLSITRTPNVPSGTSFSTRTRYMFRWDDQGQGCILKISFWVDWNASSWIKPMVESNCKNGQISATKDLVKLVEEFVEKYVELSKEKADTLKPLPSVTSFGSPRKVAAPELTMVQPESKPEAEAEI
From the text: (§5) To corroborate these in vivo findings, we expressed soluble versions (ΔTMD) of Lam5 and Lam6 as polyhistidine-tagged proteins and assessed their sterol binding capacity using MST.

[8] = target: T8, Lam5 (ΔTMD) (Saccharomyces cerevisiae, UniProt P43560); experiment: Microscale thermophoresis (MST) ligand binding; details: soluble Lam5 (ΔTMD)
T8 construct: Lam5 (1–633 aa), and Lam6 (1–621 aa); made in house; host or cells: E. coli BL21
T8 sequence (P43560 1-633): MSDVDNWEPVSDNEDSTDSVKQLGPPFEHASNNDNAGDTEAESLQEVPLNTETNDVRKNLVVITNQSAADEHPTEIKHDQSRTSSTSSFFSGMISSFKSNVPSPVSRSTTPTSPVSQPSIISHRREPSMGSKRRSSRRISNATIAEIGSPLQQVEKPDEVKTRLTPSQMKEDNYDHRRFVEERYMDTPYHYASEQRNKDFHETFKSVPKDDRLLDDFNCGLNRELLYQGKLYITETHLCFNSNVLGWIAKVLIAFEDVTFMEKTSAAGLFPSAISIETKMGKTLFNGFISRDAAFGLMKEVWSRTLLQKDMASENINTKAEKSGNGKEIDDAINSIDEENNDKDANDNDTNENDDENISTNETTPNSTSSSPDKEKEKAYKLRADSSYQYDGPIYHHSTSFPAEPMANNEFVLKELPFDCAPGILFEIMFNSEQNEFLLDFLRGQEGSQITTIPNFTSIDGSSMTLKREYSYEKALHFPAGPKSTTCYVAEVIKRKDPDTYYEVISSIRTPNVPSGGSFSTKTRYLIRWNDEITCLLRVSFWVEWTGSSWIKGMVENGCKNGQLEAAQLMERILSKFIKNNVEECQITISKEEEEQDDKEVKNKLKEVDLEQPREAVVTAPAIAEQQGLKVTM
From the text: as §5

[9] = target: T9, Sip3^StARkin (Saccharomyces cerevisiae, UniProt P38717); experiment: biochemical; assay type: binding
T9 construct: Sip3^StARkin (733–1002 aa, 32.5 kDa); made in house; host or cells: Lactococcus lactis DML1
T9 sequence (P38717 733-1002): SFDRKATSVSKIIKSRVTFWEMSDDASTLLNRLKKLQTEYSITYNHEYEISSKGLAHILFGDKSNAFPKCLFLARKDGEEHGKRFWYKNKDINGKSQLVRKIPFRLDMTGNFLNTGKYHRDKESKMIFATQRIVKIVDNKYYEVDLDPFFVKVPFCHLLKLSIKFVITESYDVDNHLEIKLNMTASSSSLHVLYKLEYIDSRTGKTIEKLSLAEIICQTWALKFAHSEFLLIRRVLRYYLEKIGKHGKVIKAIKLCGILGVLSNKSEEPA
Protocol: as §4, §2, §3

[10] = target: T1, Pry1; experiment: In vitro radioligand binding assay with [3H]-cholesterol; details: Pry1, pH 7.5, 100 pmol protein
From the text: (§6) To validate these in vivo findings with independent in vitro approaches, Pry1, NPC2, Osh4, and STARD1 were expressed as C terminally polyhistidine-tagged proteins in Escherichia coli and purified using Ni^2+-NTA agarose beads. […] Protein-bound radioligand was separated from unbound ligand by absorption to an ion-exchange matrix ([13], [51]) (Fig. 2A).
(§7) Schematic representation of the workflow of the in vitro lipid binding assay. Purified proteins (blue, 100 pmol), different concentrations of radiolabeled [^3H]-cholesterol (green, 0–400 pmol) are incubated together to allow binding. Proteins were separated from unbound ligand by adsorption to an ion exchange matrix (gray), followed by washing steps. The protein-bound ligand is then eluted and quantified by liquid scintillation counting. Nonspecific binding is assessed in parallel by performing the assay in the absence of protein.
(§8) The in vitro radioligand binding assay was performed essentially as previously described ([13], [39]). Purified proteins (100 pmol) were incubated with 100 to 400 pmol of [^3H]-cholesterol (1 mCi/ml, specific activity 50 Ci/mmol; American Radiolabeled Chemicals, Inc), in binding buffer for 1 h at 30 °C. The pH of the binding buffer was adjusted based on the isoelectric point of the protein: for Pry1 and Osh4, 20 mM Tris (pH 7.5), 30 mM NaCl; for STARD1, the same buffer at pH 8.5; and for NPC2, 20 mM potassium acetate (pH 5.5), 30 mM NaCl.
(§9) Proteins were then separated from unbound ligand by adsorption to SP Sepharose (GE Healthcare) beads for NPC2, and to Q Sepharose beads (GE Healthcare) beads for all other proteins. Beads were washed and proteins were eluted with binding buffer containing 1 M NaCl. Protein-bound radioligand was quantified by scintillation counting. Ion exchange beads without protein were used to define nonspecific binding. Data were analyzed using Prism software (GraphPad) and are presented as the mean ± SD from three independent experiments.

[11] = target: T10, NPC2 (Homo sapiens, UniProt P61916); experiment: as above; details: NPC2, pH 5.5, 100 pmol protein
T10 construct: made in house; host or cells: E. coli
T10 sequence (P61916 20-151): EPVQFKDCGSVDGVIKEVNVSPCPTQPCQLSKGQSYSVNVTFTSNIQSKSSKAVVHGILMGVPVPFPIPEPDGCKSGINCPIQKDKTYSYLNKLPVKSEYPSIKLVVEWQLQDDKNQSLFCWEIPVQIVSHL
From the text: as §6, §7, §8, §9

[12] = target: T3, Osh4; experiment: as above; details: Osh4, pH 7.5, 100 pmol protein
From the text: as §6, §7, §8, §9

[13] = target: T11, StARkin domain of Lam6 (Saccharomyces cerevisiae, UniProt Q08001); experiment: MST protein-liposome binding; details: Fig. 7F, StARkin domain of Lam6, DOPC/DOPE 80/20 mol% liposomes
T11 construct: Lam6^StARkin (401–579 aa, 22 kDa); made in house; host or cells: Lactococcus lactis DML1
T11 sequence (Q08001 401-579): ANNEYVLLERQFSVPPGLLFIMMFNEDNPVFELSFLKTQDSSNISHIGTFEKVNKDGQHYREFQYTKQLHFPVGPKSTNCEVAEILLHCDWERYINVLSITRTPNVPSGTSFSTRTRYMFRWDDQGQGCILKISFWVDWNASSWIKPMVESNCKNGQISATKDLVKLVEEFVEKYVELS
Protocol: To test whether the GRAM domain of Lam6 could function as a coincidence detector recognizing both PS and ergosterol simultaneously, as observed with the GRAM domain of Aster-B/GRAM1b, we assessed liposome binding by isolated GRAM and StARkin domains ([58], [60]).
Lipids were dried from chloroform stock solutions using a rotary evaporator or under a gentle nitrogen gas stream. The dried lipid film was resuspended in 1 ml liposome buffer (25 mM Tris (pH 7.5), 50 mM NaCl) to a final concentration of 2 mM phospholipids. The phospholipid suspension was then subjected to ten freeze-thaw cycles, alternating between liquid nitrogen and a 55 °C water bath.
The resulting multilamellar liposomes were extruded nineteen times through a polycarbonate filter of 0.8 μm pore size to generate large unilamellar vesicles.

T6 sequence (P38800 967-1139): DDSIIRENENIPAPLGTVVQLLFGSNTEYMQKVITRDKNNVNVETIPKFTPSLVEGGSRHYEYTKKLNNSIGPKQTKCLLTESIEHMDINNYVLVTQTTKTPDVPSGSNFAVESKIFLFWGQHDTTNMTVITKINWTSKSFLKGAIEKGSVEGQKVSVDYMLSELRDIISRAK
T5 sequence (P38800 758-930): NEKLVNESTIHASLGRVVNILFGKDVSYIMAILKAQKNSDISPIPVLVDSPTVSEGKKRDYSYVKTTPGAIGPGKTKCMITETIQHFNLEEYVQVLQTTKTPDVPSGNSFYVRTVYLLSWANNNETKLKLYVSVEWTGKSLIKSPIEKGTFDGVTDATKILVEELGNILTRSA

CC(C)CCC[C@@H](C)[C@H]1CC[C@H]2[C@@H]3CC=C4C[C@@H](OS(=O)(=O)O)CC[C@]4(C)[C@H]3CC[C@]12C [cholesterol sulfate] gave a Kd [1] of 1750 nM, a Kd [2] of 64 nM and a Kd [3] of 1690 nM. It also gave a Kd [4] of 47 nM, a Kd [5] of 71 nM and a Kd [6] of 340 nM. It also gave a Kd [7] of 90 nM, a Kd [8] of 290 nM and a Kd [9] of 530 nM.
CC(C)CCC[C@@H](C)[C@H]1CC[C@H]2[C@@H]3CC=C4C[C@@H](O)CC[C@]4(C)[C@H]3CC[C@]12C [cholesterol] showed a Kd [10] of 2400 nM, a Kd [11] of 1600 nM and a Kd [12] of 2300 nM.
Compound CC(C)[C@@H](C)/C=C/[C@@H](C)[C@H]1CC[C@H]2C3=CC=C4C[C@@H](O)CC[C@]4(C)[C@H]3CC[C@]12C [ergosterol] has a Kd [13] of 8600 ± 3400 nM.
